Data taken from article PMC5842505, “Allosteric Inhibition of Serotonin 5-HT7 Receptors by Zinc Ions” (Molecular Neurobiology, 2017).
Like-named read-outs stand apart in the source and are kept apart here.

Legend:
human 5-HT7 receptor [1] = target: T1, human 5-HT7 receptor (Homo sapiens, UniProt P34969); assay: Screen of monovalent and divalent cations on radioligand binding; settings: for decrease in radioligand binding relative to the control: higher cation concentration (5 mM)
Description: Non-specific binding was defined by the binding obtained in the presence of 10 μM 5-HT. The incubation buffer consisted of 50 mM Tris–HCl (pH 7.7), 4 mM MgCl2, 10 μM pargyline, and 0.1% ascorbic acid. The binding reactions were stopped by filtration through GF/B UniFilter plates using a harvester (PerkinElmer). The plate filters were then dried, and 20 μl of Ultima Gold MV (PerkinElmer) was added. Radioactivity was measured using a MicroBeta TriLux counter (PerkinElmer).
Initially, different monovalent and divalent cations (Na^+, K^+, Mg^2+, Ca^2+, and Zn^2+) were screened at concentrations of 500 μM and 5 mM to assess whether they had any effects on the 5-HT7 receptor (Fig. 1).
The binding of radioligands in the absence of the tested cations is referred to as basal specific binding and was set to 100% (dotted line)

human 5-HT7b receptor = target: T2, human 5-HT7b receptor (Homo sapiens, UniProt P34969); assay: LANCE cAMP functional assay in HEK293 cells expressing the 5-HT7 receptor; assay type: cell-based; settings: for K B: antagonist vs 10 nM 5-CT; for effect on constitutive (unstimulated cAMP) activity: constitutively active 5-HT7 HEK293 cell line
T2 construct: The full-length human 5-HT7b receptor complementary DNA (cDNA)
T2 sequence (P34969 1-432 limits assumed): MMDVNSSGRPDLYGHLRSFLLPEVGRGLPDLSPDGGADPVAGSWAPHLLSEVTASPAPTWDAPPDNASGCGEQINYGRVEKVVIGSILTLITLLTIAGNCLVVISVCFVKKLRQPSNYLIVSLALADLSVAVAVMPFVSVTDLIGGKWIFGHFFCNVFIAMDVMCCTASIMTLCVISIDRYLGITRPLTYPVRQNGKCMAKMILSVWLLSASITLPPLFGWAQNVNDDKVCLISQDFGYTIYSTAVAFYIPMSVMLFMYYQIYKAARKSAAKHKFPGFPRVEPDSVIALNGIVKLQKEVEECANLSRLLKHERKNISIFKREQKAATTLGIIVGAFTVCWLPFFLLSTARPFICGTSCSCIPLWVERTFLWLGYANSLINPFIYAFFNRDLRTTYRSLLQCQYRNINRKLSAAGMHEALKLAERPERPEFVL
Description: (§1) HEK293 cells stably expressing the human 5-HT7b receptor were grown in Dulbecco’s Modified Eagle’s Medium (DMEM) (Lonza, Basel, Switzerland) supplemented with 10% dialyzed fetal bovine serum (FBS) (Lonza) and 500 μg/ml G418 sulfate (Sigma-Aldrich) at 37 °C in a humidified atmosphere with 5% CO2. For the membrane preparations, the cells were sub-cultured in 150-cm^2 flasks, grown to 90% confluence, washed twice with phosphate-buffered saline (PBS) pre-warmed to 37 °C, and pelleted by centrifugation (200×g for 5 min) in PBS containing 0.1 mM ethylenediaminetetraacetic acid (EDTA) and 1 mM dithiothreitol (DTT). Prior to the membrane preparation, the pellets were frozen at −80 °C. For the functional experiments, the cells were sub-cultured in 75-cm^2 flasks, grown to 90% confluence, washed twice with PBS pre-warmed to 37 °C, and pelleted by centrifugation (180×g) in PBS containing 0.5 mM EDTA. The supernatant was aspirated, and the cell pellet was resuspended in stimulation buffer (1× HBSS, 5 mM HEPES, 0.5 mM IBMX, 0.1% BSA).
Each compound was tested at eight concentrations ranging from 0.01 nM to 100 μM. The total level of cAMP was measured using the LANCE cAMP detection kit (PerkinElmer) according to the manufacturer’s recommendations. To quantify the cAMP levels, 200 or 1000 (for measuring constitutive activity) cells/well (5 μl) were incubated with compounds (5 μl) for 30 min at room temperature in a 384-well white opaque microtiter plate. After incubation, 10 μl of the working solution (5 μl Eu-cAMP and 5 μl ULight-anti-cAMP) was added to induce cell lysis and terminate the reaction. The assay plate was incubated for 1 h at room temperature. The time-resolved fluorescence resonance energy transfer (TR-FRET) signal was detected using an Infinite M1000 PRO (Tecan, Männedorf, Switzerland) with instrument settings from the LANCE cAMP detection kit manual.
The derivation of the Cheng–Prusoff equation was applied for the analysis of antagonist functional inhibition curves

HEK293 cells = settings: 30-min exposure, MTT and LDH tests
Description: To estimate potential ZnCl2-induced cell death, a colorimetric method was applied in which the amount of formazan salt that had formed after the conversion of lactate to pyruvate followed by the reduction of tetrazolium salt was proportional to the lactate dehydrogenase (LDH) activity in the sample. All procedures were conducted according to the manufacturer’s protocol (Pierce LDH Cytotoxicity Assay Kit, Thermo Fisher Scientific, Waltham, Massachusetts, USA). In brief, the level of LDH released from damaged cells into the culture medium was measured after a 30-min exposure to different concentrations of ZnCl2 in 96-well plates. Cell-free culture supernatants were collected from each well and incubated with the appropriate substrate mix at RT for 30 min. The intensity of the red color formed in the assay and measured at a wavelength of 490 nm was proportional to the LDH activity and the number of damaged cells. The data were normalized to the activity of LDH released from lysis buffer-treated cells (100%) and expressed as a percent of the total ± SEM from three separate experiments.
The yellow tetrazolium 3-(4,5-dimethylthiazolyl-2)-2,5-diphenyltetrazolium bromide (MTT) is reduced by metabolically active cells, by the action of dehydrogenase enzymes, generating NADH and NADPH. The resulting intracellular purple formazan is then solubilized and quantified by spectrophotometry. […]

human 5-HT7 receptor [2] = target: T1, human 5-HT7 receptor; assay: Competition radioligand binding (orthosteric ligands ± Zn2+; Zn2+ titration curves); set-up: The full-length human 5-HT7b receptor complementary DNA (cDNA); settings: read-out: IC50 for inhibiting radioligand binding
Description: (§2) Cell pellets were thawed and homogenized in 10 volumes of 50 mM Tris–HCl buffer (pH 7.7) containing 0.1 mM EDTA, using an Ultra Turrax tissue homogenizer. The pellets were centrifuged twice at 35,000×g for 20 min at 4 °C, with 15-min incubation at 37 °C between centrifugations. The pellets were then resuspended in the incubation buffer as described below for the radioligand binding assays. The membrane protein concentrations were determined using the Pierce™ Coomassie (Bradford) Protein Assay Kit (Thermo Fisher Scientific, Waltham, USA), with bovine serum albumin (BSA) as the standard.
(§3) Data from the saturation (K D), competition binding (K i), and kinetic experiments (koff/offobs) were fitted to a one- or two-site model, and the models were compared using an F test (extra sum-of-squares test).
For the competition binding assay, the affinity constant values (K i) were calculated using the Cheng–Prusoff equation (Eq. 2): […]

5-HT1A receptor = system: 5-HT1A receptor; set-up: method as in PMID 26660328; settings: cited from earlier work
human 5-HT7 receptor [3] = target: T1, human 5-HT7 receptor; assay: Saturation radioligand binding in the absence and presence of Zn2+; set-up: The full-length human 5-HT7b receptor complementary DNA (cDNA); settings: non-linear regression, Eq. 1
Description: as §1, §2, §3

muscarinic M2 receptor = system: muscarinic M2 receptor; set-up: method as in PMID 17009927; settings: cited from earlier work
[4] = cation at both concentrations, 500 μM and 5 mM

T1 sequence (P34969 1-432 limits assumed): as above

## [Ca+2] [Ca^2+]
Human 5-HT7 receptor [1]; cation 500 μM
  effect on the binding of the three tested radioligands: did not alter
Human 5-HT7 receptor [1]
  decrease in radioligand binding relative to the control: 10 to 20%

## [K+] [K^+]
Human 5-HT7 receptor [1]; [4]
  effect on the binding of the three tested radioligands: did not alter

## CN1C[C@@H](NS(=O)(=O)N(C)C)C[C@@H]2c3cccc4c3c(cn4C)C[C@H]21 [Mesulergine, mesulergine]
Human 5-HT7b receptor; Zn2+ 0 μM
  K B: 31.05 ± 7.51 nM
Human 5-HT7b receptor; Zn2+ 0 μM, listed as mesulergine
  K B: 31 nM
Human 5-HT7b receptor; Zn2+ 10 μM
  K B: 37.15 ± 6.86 nM
Human 5-HT7b receptor
  effect on constitutive (unstimulated cAMP) activity: inverse agonistic properties

## [Mg+2] [Mg^2+]
Human 5-HT7 receptor [1]; cation 500 μM
  effect on the binding of the three tested radioligands: did not alter
Human 5-HT7 receptor [1]
  decrease in radioligand binding relative to the control: 10 to 20%

## [Na+] [Na^+]
Human 5-HT7 receptor [1]; [4]
  effect on the binding of the three tested radioligands: did not alter

## [Cl-].[Cl-].[Zn+2] [Zn^2+, ZnCl2]
HEK293 cells
  concentration not affecting the number of living cells: ≤ 200 µM
Human 5-HT7 receptor [1]; cation 500 μM
  effect on the level of [3H]SB-269970 binding: did not influence
  reduction of [3H]5-CT binding: 67%
  reduction of [3H]mesulergine binding: 55%
Human 5-HT7 receptor [1]
  decrease in radioligand binding relative to the control: up to 90%
Human 5-HT7 receptor [2]; vs [3H]5-CT at fixed concentration (≤K D)
  IC50: 346 µM
Human 5-HT7 receptor [2]; vs [3H]SB-269970 at fixed concentration (≤K D)
  IC50: 1170 µM
Human 5-HT7 receptor [2]; vs [3H]mesulergine at fixed concentration (≤K D)
  IC50: 241 µM
Human 5-HT7b receptor
  effect on constitutive (unstimulated cAMP) activity: no influence
Human 5-HT7b receptor; zinc concentration up to 10 μM
  functional profile: weak neutral antagonist
5-HT1A receptor; Zn2+ 10 μM
  effect on agonist binding: potentiation
5-HT1A receptor; Zn2+ 500 μM
  effect on agonist binding: inhibition
Human 5-HT7 receptor [3]; vs [3H]5-CT binding
  cooperativity factor α: 0.15
Human 5-HT7 receptor [3]; vs [3H]SB-269970 binding
  cooperativity factor α: 0.06
Human 5-HT7 receptor [3]; vs [3H]mesulergine binding
  cooperativity factor α: 0.25

## C=CC[N@@+]12CC[C@@]34c5ccccc5N5/C=C6/[C@H]7C[C@H]8[C@@]9(CC[N@@+]8(CC=C)C/C7=C/CO)c7ccccc7N(/C=C(/[C@@H](C[C@@H]31)/C(=C\CO)C2)[C@H]54)[C@@H]69 [alcuronium]
Muscarinic M2 receptor
  change in the affinity of acetylcholine (fold): 10 fold
  change in the affinity of arecoline (fold): 1.7 fold
